# Laboratory results reported in publication PMC11638965, “Leveraging Dual-Ligase Recruitment to Enhance Protein Degradation via a Heterotrivalent Proteolysis Targeting Chimera” (Journal of the American Chemical Society, 2024).
# Experiments:
# Experiment in all cases: Western blot dose-response degradation in homozygous HiBiT-BromoTag-BRD4 HEK293 cells
# BRD2 = target: T1, BRD2 (Homo sapiens, UniProt P25440); format: cell-based
# T1 construct: HiBiT, is appended to the N-terminus of endogenous BRD2, BRD3, and BRD4; endogenous in cells
# T1 sequence (P25440 whole entry): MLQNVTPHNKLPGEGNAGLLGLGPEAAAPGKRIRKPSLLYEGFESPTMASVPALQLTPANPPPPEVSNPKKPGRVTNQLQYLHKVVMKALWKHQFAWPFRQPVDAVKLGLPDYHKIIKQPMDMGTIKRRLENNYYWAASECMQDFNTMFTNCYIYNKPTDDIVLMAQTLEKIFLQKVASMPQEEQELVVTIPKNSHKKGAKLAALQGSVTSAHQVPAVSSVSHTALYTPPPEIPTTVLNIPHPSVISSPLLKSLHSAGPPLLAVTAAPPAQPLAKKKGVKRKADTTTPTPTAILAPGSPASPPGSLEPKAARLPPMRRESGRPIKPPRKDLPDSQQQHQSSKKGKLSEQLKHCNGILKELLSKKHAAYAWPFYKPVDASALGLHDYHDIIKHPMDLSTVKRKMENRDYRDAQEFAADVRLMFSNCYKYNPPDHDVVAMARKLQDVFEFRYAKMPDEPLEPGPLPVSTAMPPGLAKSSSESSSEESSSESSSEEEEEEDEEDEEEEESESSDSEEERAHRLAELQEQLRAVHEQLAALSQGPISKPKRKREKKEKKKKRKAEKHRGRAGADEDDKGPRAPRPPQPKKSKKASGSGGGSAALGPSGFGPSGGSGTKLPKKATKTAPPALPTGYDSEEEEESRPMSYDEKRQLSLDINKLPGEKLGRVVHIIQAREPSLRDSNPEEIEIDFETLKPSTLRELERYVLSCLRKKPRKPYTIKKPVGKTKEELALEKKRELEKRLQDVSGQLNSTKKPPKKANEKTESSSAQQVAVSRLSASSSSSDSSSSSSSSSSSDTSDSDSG
# Experimental: (§1) Cell Culture HEK293 cells were obtained from ATCC. HEK293 was cultured in DMEM supplemented with 10% (v/v) fetal bovine serum (FBS), 1% […] and 1% (v/v) penicillin/streptomycin (pen/strep) at 37 °C, 5% CO2, and 95% humidity.
# (§2) To perform the single gRNA Cas9 CRISPR KI of BromoTag into BRD4 in HEK293. HEK293 cells were plated at a density of 5 × 10^5 cells into individual wells of a six-well plate in 1 mL of DMEM and left overnight to adhere to the plate. The cells were subsequently transfected the following day using GeneJuice lipofectamine reagent simultaneously with a custom donor vector pMK-RQ containing 500bp BRD4 homology arms on either side of an eGFP-IRES-HiBiT-BromoTag and two individual pBABED vector harboring U6-sgRNA and puromycin expression cassettes containing two BRD4 targeting gRNA sequences: […] and […]. The construction of these plasmids was performed by Thomas Macartney of the MRC-PPU CRISPR services. The following day cells were washed with PBS before fresh DMEM media was applied cells were left to recover in DMEM for a further 4 days. Cells were subsequently FACS sorted for GFP expression and expanded from single cells. HEK293 clones were validated for eGFP-IRES-HiBIT-BromoTag-BRD4 integration via WB, junction PCR and sequencing.
# (§3) Dose–response degradation assay 97 of was performed on the genotype verified eGFP-IRES-HiBIT-BromoTag-BRD4 homozygous HEK293 cell lines. The cells were plated at a density of 5 × 10^5 cells per well of a six well plate a day prior to initiation of the experiment. 97 was dissolved into a 10 mM concentrated stock solution in DMSO from which 97 was further diluted to a working concentration range of 10 μM to 10 pM in DMEM and was subsequently added to cells. Additional controls including, vehicle, AGB1 (1 μM) and cis-AGB1 (1 μM) were similarly added to cells alongside 97 treatments. Cells were left to incubate with compound for 4 h at 37 °C, 5% CO2, and 95% humidity. Cells were then subsequently washed twice with PBS before being harvested in RIPA buffer supplemented with protease inhibitor cocktail and Benzonase Nuclease before being store at −20 °C.
# (§4) Total protein quantity was determined using the BCA protein assay. Protein concentration was determined using the BCA assay. Samples were then prepared in LDS buffer and subsequently loaded onto NuPAGE 4–12% Bis-Tris Midi gels, followed by the transfer of the proteins onto nitrocellulose membranes. The membranes were blocked for 1 h prior to incubation with the primary antibodies using 5% Milk TBST. Membranes were incubated at 4 °C in either BRD4(Ab128874), BRD3(Ab50818) or BRD2(Ab139690) primary antibody overnight. Following overnight incubation, the membranes were incubated with complementary IRDye 800CW secondary antibodies and a hFAB Rhodamine Anti-Tubulin Primary Antibody (loading control) for 1 h and then imaged with a Bio-Rad imager. All Western blots were analyzed for band intensities using Image Lab (Bio-Rad). The data extracted from these blots were then plotted and analyzed using Prism (v. 10.2.2, GraphPad). All Western blotting figures were developed in Adobe Illustrator.
# BRD3 = target: T2, BRD3 (Homo sapiens, UniProt Q15059); format: cell-based
# T2 construct: HiBiT, is appended to the N-terminus of endogenous BRD2, BRD3, and BRD4; endogenous in cells
# T2 sequence (Q15059 whole entry): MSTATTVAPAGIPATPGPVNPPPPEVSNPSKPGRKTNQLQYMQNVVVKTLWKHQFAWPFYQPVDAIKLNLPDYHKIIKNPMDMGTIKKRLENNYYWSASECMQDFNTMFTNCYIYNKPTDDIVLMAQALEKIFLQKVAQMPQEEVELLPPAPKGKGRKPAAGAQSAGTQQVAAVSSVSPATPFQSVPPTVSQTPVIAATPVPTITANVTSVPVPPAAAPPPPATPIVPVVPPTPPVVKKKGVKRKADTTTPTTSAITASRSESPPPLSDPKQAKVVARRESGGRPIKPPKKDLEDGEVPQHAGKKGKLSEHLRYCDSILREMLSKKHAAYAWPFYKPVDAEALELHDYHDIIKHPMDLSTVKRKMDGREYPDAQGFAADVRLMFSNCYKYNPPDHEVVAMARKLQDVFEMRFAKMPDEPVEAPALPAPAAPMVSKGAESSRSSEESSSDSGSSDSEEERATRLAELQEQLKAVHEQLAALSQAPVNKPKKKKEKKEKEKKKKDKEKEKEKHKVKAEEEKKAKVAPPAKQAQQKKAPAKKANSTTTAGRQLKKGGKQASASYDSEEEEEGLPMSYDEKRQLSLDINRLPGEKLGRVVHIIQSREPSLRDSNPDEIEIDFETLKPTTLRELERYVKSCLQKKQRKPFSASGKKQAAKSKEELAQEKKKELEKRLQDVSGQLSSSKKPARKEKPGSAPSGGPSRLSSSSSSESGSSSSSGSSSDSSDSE
# Experimental: as §1, §2, §3, §4
# [1] = target: T3, BromoTag-BRD4 (BRD4^Short) (Homo sapiens, UniProt O60885, L387A); format: cell-based
# T3 construct: homozygous endogenous HiBiT-BromoTag-BRD4 HEK293 cell line; endogenous in cells; host or cells: HEK293, homozygous CRISPR knock-in eGFP-IRES-HiBiT-BromoTag-BRD4
# Experimental: as §1, §2, §3, §4
# [2] = system: BromoTag-BRD4 (BRD4^Long); format: cell-based, human; conditions: for pDC50 BRD4Long: homozygous BromoTag-BRD4 HEK293 cells (Table S8)
# Experimental: as §1, §2, §3
# Total protein quantity was determined using the BCA protein assay. Protein concentration was determined using the BCA assay. Samples were then prepared in LDS buffer and subsequently loaded onto NuPAGE 4–12% Bis-Tris Midi gels, followed by the transfer of the proteins onto nitrocellulose membranes. The membranes were blocked for 1 h prior to incubation with the primary antibodies using 5% Milk TBST. […] All Western blots were analyzed for band intensities using Image Lab (Bio-Rad). The data extracted from these blots were then plotted and analyzed using Prism (v. 10.2.2, GraphPad). […]
# CRBN = CRBN (Homo sapiens, UniProt Q96SW2); format: cell-based; set-up: Western blot data for BET, CRBN and VHL protein levels; endogenous in cells; host or cells: HEK293 (ATCC)
# Chain of CRBN (Q96SW2 whole entry): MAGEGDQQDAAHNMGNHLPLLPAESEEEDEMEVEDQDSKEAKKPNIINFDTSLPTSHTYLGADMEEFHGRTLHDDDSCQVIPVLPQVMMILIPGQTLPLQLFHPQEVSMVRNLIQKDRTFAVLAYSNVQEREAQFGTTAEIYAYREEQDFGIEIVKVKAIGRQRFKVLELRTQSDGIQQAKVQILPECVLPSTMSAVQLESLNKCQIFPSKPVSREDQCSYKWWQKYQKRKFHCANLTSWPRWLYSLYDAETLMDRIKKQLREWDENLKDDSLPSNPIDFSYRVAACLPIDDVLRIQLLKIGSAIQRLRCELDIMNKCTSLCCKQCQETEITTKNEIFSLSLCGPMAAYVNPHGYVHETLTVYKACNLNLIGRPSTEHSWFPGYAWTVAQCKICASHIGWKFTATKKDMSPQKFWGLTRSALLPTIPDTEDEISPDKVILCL
# Experimental: as §1, §2
# Dose–response degradation assay 97 of was performed on the genotype verified eGFP-IRES-HiBIT-BromoTag-BRD4 homozygous HEK293 cell lines. The cells were plated at a density of 5 × 10^5 cells per well of a six well plate a day prior to initiation of the experiment. 97 was dissolved into a 10 mM concentrated stock solution in DMSO from which 97 was further diluted to a working concentration range of 10 μM to 10 pM in DMEM and was subsequently added to cells. […]
# Total protein quantity was determined using the BCA protein assay. Protein concentration was determined using the BCA assay. […] All Western blots were analyzed for band intensities using Image Lab (Bio-Rad). The data extracted from these blots were then plotted and analyzed using Prism (v. 10.2.2, GraphPad). […]
# [3] = HiBiT-BromoTag-BRD4 HEK293, 4 hours (Figure 12)
# [4] = homozygous BromoTag-BRD4 HEK293 cells (Table S8)
# [5] = HiBiT-BromoTag-BRD4 HEK293, 4 hours, n = 1 (Figure 12)
selectivity window of BromoTag-BRD4 degradation over BRD2 (BRD2; DC50 ratio),DC50 (BRD2; [3]),Dmax (BRD2; [3]),Dmax (BRD2; [4]),selectivity window of BromoTag-BRD4 degradation over BRD3 (BRD3; DC50 ratio),DC50 (BRD3; [3]),Dmax (BRD3; [3]),pDC50 BRD3 (BRD3; [4]),"DC50 [1, 3]","Dmax [1, 3]","pDC50 BRD4Short [1, 4]","DC50 [2, 3]",pDC50 BRD4Long [2],fold more potent degradation of CRBN than 27 (CRBN; DC50 2.1 nM vs 75 nM),DC50 (CRBN; [5]),Dmax (CRBN; [5]),"Dmax % BRD4Short [1, 4]",SMILES,"Dmax BRD4^Long [2, 3]"
6000 fold,770 nM,50%,56%,250 fold,33 nM,79%,7.5 ± 0.4,0.14 nM,86%,9.9 ± 0.1,0.12 nM,9.9 ± 0.6,~35 fold,2.1 nM,77%,,"CC[C@@H](C(=O)OCCOCCOCCOCC(C)(COCCOCCOCCNc1cc2c(cc1F)C(=O)N(C1CCC(=O)NC1=O)C2=O)COCC(=O)N[C@H](C(=O)N1C[C@H](O)C[C@H]1C(=O)N[C@@H](C)c1ccc(-c2scnc2C)cc1)C(C)(C)C)[C@@H]1N=C(c2ccc(Cl)cc2)c2c(sc(C)c2C)-n2c(C)nnc21 (mixture of isomers) [AB3145 (97), (17S)-11-((2-(2-(2-((2-(2,6-dioxopiperidin-3-yl)-6-fluoro-1,3-dioxoisoindolin-5-yl)amino)ethoxy)ethoxy)ethoxy)methyl)-17-((2S,4R)-4-hydroxy-2-(((S)-1-(4-(4-methylthiazol-5-yl)phenyl)ethyl)carbamoyl)pyrrolidine-1-carbonyl)-11,18,18-trimethyl-15-oxo-3,6,9,13-tetraoxa-16-azanonadecyl (2R)-2-((S)-4-(4-chlorophenyl)-2,3,9-trimethyl-6H-thieno[3,2-f][1,2,4]triazolo[4,3-a][1,4]diazepin-6-yl)butanoate]",85%
,,,,,,,,,,8.6 ± 0.1,,8.0 ± 0.2,,,,11%,"CC[C@@H](C(=O)OCCOCCOCCOCC(=O)N[C@H](C(=O)N1C[C@H](O)C[C@H]1C(=O)NCc1ccc(-c2scnc2C)cc1)C(C)(C)C)[C@@H]1N=C(c2ccc(Cl)cc2)c2c(sc(C)c2C)-n2c(C)nnc21 [AGB1, reference compound]",
